According to patent US5326882A, “Chemiluminescent 3-(substituted Adamant-2'-Ylidene) 1,2-dioxetanes” (Tropix, Inc., priority 1992, dated 1994):

Molecular target: alkaline phosphatase (Bos taurus, UniProt P19111)
Assay: Chemiluminescent signal and signal:background with enhancer polymers (Example XVII)
Type: biochemical
Protocol: Four sets of three tubes each, each tube in each set containing 450 μl of a 0.4 mM aqueous solution of one of the four 1,2-dioxetanes being compared in 0.1M diethanolamine containing 1 mM magnesium chloride, 0.02% sodium azide and 0.1% of the enhancer polymer, pH 10.0 (substrate buffer) were prepared and the background signal from each tube measured using a Berthold LB 952T luminometer (Berthold Instruments; Wildbad, Federal Republic of Germany).
Next, 50 μl of an aqueous solution, 2.83×10^-12 M of alkaline phosphatase in 0.1M diethanolamine containing 1 mM magnesium chloride, 0.02% sodium azide, pH 10.0, (final enzyme concentration 2.83×10^-13 M) was added to each tube and the chemiluminescent signals were measured in the luminometer at 5 and 20 minutes. The intensity of the chemiluminescent signals and the signal: background ratios obtained for each of the four 1,2-dioxetanes in the presence of the enhancer polymers are shown in Table III below.
The enhancer polymers used, and the symbols for such polymers used in Table III, were the following: […]

[1] = polymer BAEDM, time 0 (background, before enzyme)
[2] = polymer BZ, time 0 (background, before enzyme)
[3] = polymer DAA TMQ, time 0 (background, before enzyme)
[4] = polymer DME(OH)B, time 0 (background, before enzyme)
[5] = polymer DMEB, time 0 (background, before enzyme)
[6] = polymer DMQ TEQ, time 0 (background, before enzyme)
[7] = polymer MPB, time 0 (background, before enzyme)
[8] = polymer NONE, 5 min, enzyme 2.83×10^-13 M
[9] = polymer NONE, 20 min, enzyme 2.83×10^-13 M
[10] = polymer NONE, time 0 (background, before enzyme)
[11] = polymer S/TMQ(1:2), time 0 (background, before enzyme)
[12] = polymer S/TMQ(1:4), time 0 (background, before enzyme)
[13] = polymer SAPPHIRE (BDMQ), time 0 (background, before enzyme)
[14] = polymer TBQ, time 0 (background, before enzyme)
[15] = polymer TEQ, time 0 (background, before enzyme)
[16] = polymer TMQ, time 0 (background, before enzyme)

Sequence of alkaline phosphatase (P19111 20-506 limits assumed): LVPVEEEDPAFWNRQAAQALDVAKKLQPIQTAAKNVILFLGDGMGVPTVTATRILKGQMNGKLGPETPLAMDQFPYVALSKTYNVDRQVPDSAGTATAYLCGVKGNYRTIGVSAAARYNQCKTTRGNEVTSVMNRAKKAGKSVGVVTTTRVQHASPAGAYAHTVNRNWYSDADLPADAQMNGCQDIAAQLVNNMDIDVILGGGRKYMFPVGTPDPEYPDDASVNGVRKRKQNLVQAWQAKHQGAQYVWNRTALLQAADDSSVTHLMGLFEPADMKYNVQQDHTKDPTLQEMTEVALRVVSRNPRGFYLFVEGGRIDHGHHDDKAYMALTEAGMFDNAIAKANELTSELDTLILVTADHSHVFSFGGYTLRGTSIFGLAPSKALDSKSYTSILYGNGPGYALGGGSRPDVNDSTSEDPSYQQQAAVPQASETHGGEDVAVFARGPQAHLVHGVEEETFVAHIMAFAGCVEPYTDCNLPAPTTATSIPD

COC1(c2cccc(OP(=O)(O)O)c2)OOC12C1CC3CC2CC(O)(C3)C1 (single isomer, unassigned) [A-OH-AMPPD, disodium 3-(4-methoxyspiro-[1,2-dioxetane-3,2'-(5'-hydroxy)tricyclo[3.3.1.1^3,7]decan]-4-yl)phenyl phosphate]
S/N (polymer BAEDM, 5 min): 61.6
SIGNAL (polymer BAEDM, 5 min): 5887.3
S/N (polymer BAEDM, 20 min): 77.8
SIGNAL (polymer BAEDM, 20 min): 7433.5
S/N (polymer BAEDM, time 0): 1.0
SIGNAL [1]: 95.6
S/N (polymer BZ, 5 min): 27.0
SIGNAL (polymer BZ, 5 min): 2156.9
S/N (polymer BZ, 20 min): 31.7
SIGNAL (polymer BZ, 20 min): 2536.7
S/N (polymer BZ, time 0): 1.0
SIGNAL [2]: 79.9
S/N (polymer DAA TMQ, 5 min): 61.7
SIGNAL (polymer DAA TMQ, 5 min): 5583.1
S/N (polymer DAA TMQ, 20 min): 69.7
SIGNAL (polymer DAA TMQ, 20 min): 6309.4
S/N (polymer DAA TMQ, time 0): 1.0
SIGNAL [3]: 90.5
S/N (polymer DME(OH)B, 5 min): 46.1
SIGNAL (polymer DME(OH)B, 5 min): 3931.9
S/N (polymer DME(OH)B, 20 min): 66.2
SIGNAL (polymer DME(OH)B, 20 min): 5300.5
S/N (polymer DME(OH)B, time 0): 1.0
SIGNAL [4]: 85.2
S/N (polymer DMEB, 5 min): 77.1
SIGNAL (polymer DMEB, 5 min): 6160.6
S/N (polymer DMEB, 20 min): 98.1
SIGNAL (polymer DMEB, 20 min): 7835.2
S/N (polymer DMEB, time 0): 1.0
SIGNAL [5]: 79.9
S/N (polymer DMQ TEQ, 5 min): 189.7
SIGNAL (polymer DMQ TEQ, 5 min): 17235.6
S/N (polymer DMQ TEQ, 20 min): 227.9
SIGNAL (polymer DMQ TEQ, 20 min): 20702.2
S/N (polymer DMQ TEQ, time 0): 1.0
SIGNAL [6]: 90.8
S/N (polymer MPB, 5 min): 140.7
SIGNAL (polymer MPB, 5 min): 13165.3
S/N (polymer MPB, 20 min): 172.7
SIGNAL (polymer MPB, 20 min): 16159.2
S/N (polymer MPB, time 0): 1.0
SIGNAL [7]: 93.6
S/N (polymer NONE, 5 min): 32.9
SIGNAL [8]: 2863.6
S/N (polymer NONE, 20 min): 36.3
SIGNAL [9]: 3160.8
S/N (polymer NONE, time 0): 1.0
SIGNAL [10]: 87.0
S/N (polymer S/TMQ(1:2), 5 min): 112.5
SIGNAL (polymer S/TMQ(1:2), 5 min): 10193.8
S/N (polymer S/TMQ(1:2), 20 min): 158.6
SIGNAL (polymer S/TMQ(1:2), 20 min): 11365.1
S/N (polymer S/TMQ(1:2), time 0): 1.0
SIGNAL [11]: 90.6
S/N (polymer S/TMQ(1:4), 5 min): 114.5
SIGNAL (polymer S/TMQ(1:4), 5 min): 9294.6
S/N (polymer S/TMQ(1:4), 20 min): 148.1
SIGNAL (polymer S/TMQ(1:4), 20 min): 1201.7
S/N (polymer S/TMQ(1:4), time 0): 1.0
SIGNAL [12]: 81.2
SIGNAL [13]: 86.1
S/N (polymer SAPPHIRE, 5 min): 244.5
SIGNAL (polymer SAPPHIRE, 5 min): 21051.3
S/N (polymer SAPPHIRE, 20 min): 292.3
SIGNAL (polymer SAPPHIRE, 20 min): 25330.3
S/N (polymer SAPPHIRE, time 0): 1.0
S/N (polymer TBQ, 5 min): 366.0
SIGNAL (polymer TBQ, 5 min): 37244.5
S/N (polymer TBQ, 20 min): 438.0
SIGNAL (polymer TBQ, 20 min): 44569.8
S/N (polymer TBQ, time 0): 1.0
SIGNAL [14]: 101.8
S/N (polymer TEQ, 5 min): 45.24
SIGNAL (polymer TEQ, 5 min): 15779.8
S/N (polymer TEQ, 20 min): 54.7
SIGNAL (polymer TEQ, 20 min): 1908.9
S/N (polymer TEQ, time 0): 1.0
SIGNAL [15]: 348.8
S/N (polymer TMQ, 5 min): 113.6
SIGNAL (polymer TMQ, 5 min): 8853.4
S/N (polymer TMQ, 20 min): 149.6
SIGNAL (polymer TMQ, 20 min): 11658.3
S/N (polymer TMQ, time 0): 1.0
SIGNAL [16]: 77.9

COC1(c2cccc(OP(=O)(O)O)c2)OOC12C1CC3CC2CC(O)(C3)C1 (single isomer, unassigned) [B-OH-AMPPD, disodium 3-(4-methoxyspiro-[1,2-dioxetane-3,2'-(5'-hydroxy)tricyclo[3.3.1.1^3,7]decan]-4-yl)phenyl phosphate]
S/N (polymer BAEDM, 5 min): 25.4
SIGNAL (polymer BAEDM, 5 min): 4101.3
S/N (polymer BAEDM, 20 min): 34.3
SIGNAL (polymer BAEDM, 20 min): 5538.2
S/N (polymer BAEDM, time 0): 1.0
SIGNAL [1]: 161.4
S/N (polymer BZ, 5 min): 18.8
SIGNAL (polymer BZ, 5 min): 2246.4
S/N (polymer BZ, 20 min): 22.4
SIGNAL (polymer BZ, 20 min): 2669.2
S/N (polymer BZ, time 0): 1.0
SIGNAL [2]: 119.4
S/N (polymer DAA TMQ, 5 min): 40.3
SIGNAL (polymer DAA TMQ, 5 min): 5486.8
S/N (polymer DAA TMQ, 20 min): 49.0
SIGNAL (polymer DAA TMQ, 20 min): 6670.3
S/N (polymer DAA TMQ, time 0): 1.0
SIGNAL [3]: 136.0
S/N (polymer DME(OH)B, 5 min): 20.0
SIGNAL (polymer DME(OH)B, 5 min): 2640.9
S/N (polymer DME(OH)B, 20 min): 30.2
SIGNAL (polymer DME(OH)B, 20 min): 3990.6
S/N (polymer DME(OH)B, time 0): 1.0
SIGNAL [4]: 132.1
S/N (polymer DMEB, 5 min): 35.7
SIGNAL (polymer DMEB, 5 min): 4451.6
S/N (polymer DMEB, 20 min): 48.3
SIGNAL (polymer DMEB, 20 min): 6023.9
S/N (polymer DMEB, time 0): 1.0
SIGNAL [5]: 124.6
S/N (polymer DMQ TEQ, 5 min): 63.3
SIGNAL (polymer DMQ TEQ, 5 min): 9213.8
S/N (polymer DMQ TEQ, 20 min): 57.0
SIGNAL (polymer DMQ TEQ, 20 min): 8288.0
S/N (polymer DMQ TEQ, time 0): 1.0
SIGNAL [6]: 145.5
S/N (polymer MPB, 5 min): 71.5
SIGNAL (polymer MPB, 5 min): 10021.3
S/N (polymer MPB, 20 min): 78.0
SIGNAL (polymer MPB, 20 min): 10939.0
S/N (polymer MPB, time 0): 1.0
SIGNAL [7]: 140.3
S/N (polymer NONE, 5 min): 26.3
SIGNAL [8]: 3314.8
S/N (polymer NONE, 20 min): 29.8
SIGNAL [9]: 3767.9
S/N (polymer NONE, time 0): 1.0
SIGNAL [10]: 126.3
S/N (polymer S/TMQ(1:2), 5 min): 20.6
SIGNAL (polymer S/TMQ(1:2), 5 min): 3305.1
S/N (polymer S/TMQ(1:2), 20 min): 35.7
SIGNAL (polymer S/TMQ(1:2), 20 min): 5722.3
S/N (polymer S/TMQ(1:2), time 0): 1.0
SIGNAL [11]: 160.3
S/N (polymer S/TMQ(1:4), 5 min): 35.6
SIGNAL (polymer S/TMQ(1:4), 5 min): 4775.3
S/N (polymer S/TMQ(1:4), 20 min): 53.1
SIGNAL (polymer S/TMQ(1:4), 20 min): 7120.3
S/N (polymer S/TMQ(1:4), time 0): 1.0
SIGNAL [12]: 134.0
SIGNAL [13]: 138.8
S/N (polymer SAPPHIRE, 5 min): 78.6
SIGNAL (polymer SAPPHIRE, 5 min): 10908.4
S/N (polymer SAPPHIRE, 20 min): 105.3
SIGNAL (polymer SAPPHIRE, 20 min): 14625.4
S/N (polymer SAPPHIRE, time 0): 1.0
S/N (polymer TBQ, 5 min): 97.6
SIGNAL (polymer TBQ, 5 min): 15508.5
S/N (polymer TBQ, 20 min): 131.1
SIGNAL (polymer TBQ, 20 min): 20830.8
S/N (polymer TBQ, time 0): 1.0
SIGNAL [14]: 158.9
S/N (polymer TEQ, 5 min): 61.8
SIGNAL (polymer TEQ, 5 min): 8806.2
S/N (polymer TEQ, 20 min): 81.1
SIGNAL (polymer TEQ, 20 min): 11563.4
S/N (polymer TEQ, time 0): 1.0
SIGNAL [15]: 142.6
S/N (polymer TMQ, 5 min): 49.8
SIGNAL (polymer TMQ, 5 min): 6258.9
S/N (polymer TMQ, 20 min): 70.5
SIGNAL (polymer TMQ, 20 min): 8857.8
S/N (polymer TMQ, time 0): 1.0
SIGNAL [16]: 125.7
